One assay deals with T1, CDK2/CycE (Homo sapiens, UniProt P24941).
T1 construct: purchased ProQinase GmbH (Freiburg, Germany); host or cells: insect cells (Sf9)
Nature of the assay: CDK2/CycE kinase assay (TR-FRET, 2 mM ATP). The class given is biochemical. As to conditions: 2 mM ATP (high ATP); median; read-out: CDK2/CyclinE, 2 mM ATP (high ATP), IC50 (median). The method, boiled down:
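GST-tagged human CDK2 and CycE from Sf9 cells, about 10 ng/ml, pre-incubated 15 min at 22 °C with compound in Tris/HCl pH 8.0 buffer. Reaction with 2 mM ATP and 0.75 µM biotinylated peptide for 25 min at 22 °C. Phospho-RB antibody TR-FRET (665/620 nm ratio) read after 1 h; data normalised to no-inhibitor and no-enzyme controls.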

Assay [1] has as its system BRCA1 mRNA expression in MDA-MB-231 cells. Put plainly: qRT-PCR assay: BRCA1 mRNA expression in MDA-MB-231. The class given is cell-based, human. As to conditions: Homo sapiens, MDA-MB-231, Inhibition of BRCA1 mRNA expression in MDA-MB-231 cells; median; read-out: RTqPCR-MDA-MB-231, IC50, BRCA1 (median). A digest of the protocol: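 GAPDH-normalised RT-qPCR measures the transcript after 24 h continuous compound treatment of cells seeded at 200,000/well one day earlier.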
(In general: Quantitative PCR measures a nucleic acid by following its amplification.)

For a further assay, the target named is T2, CDK9/CycT1 (Homo sapiens, UniProt P50750).
T2 construct: Recombinant full-length His-tagged human CDK9 and CycT1; purchased Life Technologies PV4131; host or cells: insect cells
Nature of the assay: CDK9/CycT1 high ATP kinase assay (TR-FRET, 2 mM ATP). The assay is classed as biochemical. The settings on record: 2 mM ATP (high ATP); median; read-out: CDK9/CyclinT1, 2 mM ATP (high ATP), IC50 (median). The method, boiled down: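 Full-length His-tagged human CDK9/CycT1 (insect cell, ~0.5 μg/mL) preincubated 15 min at 22 °C with compound in Tris pH 8.0, MgCl2, DTT buffer before reaction with biotinylated peptide substrate at high ATP (2 mM).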
For orientation: Time-resolved FRET reads energy transfer from a long-lived donor to a nearby acceptor.

T2 sequence (P50750 whole entry): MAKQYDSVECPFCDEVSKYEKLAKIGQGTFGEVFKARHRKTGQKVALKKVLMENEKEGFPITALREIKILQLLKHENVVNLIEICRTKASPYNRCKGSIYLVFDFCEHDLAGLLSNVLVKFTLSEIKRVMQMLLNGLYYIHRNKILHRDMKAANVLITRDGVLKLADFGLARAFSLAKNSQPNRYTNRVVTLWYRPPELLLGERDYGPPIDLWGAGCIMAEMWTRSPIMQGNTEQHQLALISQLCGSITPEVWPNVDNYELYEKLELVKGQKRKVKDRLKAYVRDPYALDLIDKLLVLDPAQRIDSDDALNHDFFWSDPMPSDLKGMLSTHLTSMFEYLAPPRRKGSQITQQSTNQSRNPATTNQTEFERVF
T2 sequence (O60563 whole entry partner): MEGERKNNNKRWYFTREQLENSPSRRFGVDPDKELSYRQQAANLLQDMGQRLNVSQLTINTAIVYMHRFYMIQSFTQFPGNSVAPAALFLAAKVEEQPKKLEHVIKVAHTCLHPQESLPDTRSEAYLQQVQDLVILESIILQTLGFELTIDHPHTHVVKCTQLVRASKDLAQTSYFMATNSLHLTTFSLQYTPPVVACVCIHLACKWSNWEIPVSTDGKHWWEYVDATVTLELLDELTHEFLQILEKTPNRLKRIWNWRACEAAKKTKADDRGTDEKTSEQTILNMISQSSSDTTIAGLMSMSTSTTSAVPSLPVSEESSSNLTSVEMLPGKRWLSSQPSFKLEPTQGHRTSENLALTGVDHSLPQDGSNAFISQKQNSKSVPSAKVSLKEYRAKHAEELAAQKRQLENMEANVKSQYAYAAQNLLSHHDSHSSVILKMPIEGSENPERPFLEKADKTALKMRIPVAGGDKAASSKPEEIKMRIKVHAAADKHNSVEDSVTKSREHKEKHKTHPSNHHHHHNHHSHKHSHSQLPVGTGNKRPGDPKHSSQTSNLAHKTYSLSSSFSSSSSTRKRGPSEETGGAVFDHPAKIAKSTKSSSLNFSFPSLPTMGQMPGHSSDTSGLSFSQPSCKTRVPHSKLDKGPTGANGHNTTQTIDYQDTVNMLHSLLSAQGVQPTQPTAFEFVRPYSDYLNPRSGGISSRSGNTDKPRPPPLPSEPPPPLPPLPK

In the case of `CN1CCN(c2nc(NCc3nc4cc(Cl)c(Cl)cc4[nH]3)n3ncc(C4CC4)c3n2)CC1` [Example 305, 8-cyclopropyl-N-[(5,6-dichloro-1H-benzimidazol-2-yl)methyl]-2-(4-methylpiperazin-1-yl)pyrazolo[1,5-a][1,3,5]triazin-4-amine], the figures for the IC50 (on CDK2/CycE; in assay [1]; at CDK9/CycT1) were above 20 µM, 0.00623 µM and above 20 µM, respectively.

In the case of `CCc1cnn2c(NCc3nc4c(F)c(F)ccc4[nH]3)nc(N3CCN(C)CC3)nc12.O=CO` [Example 435, formic acid N-[(4,5-difluoro-1H-benzimidazol-2-yl)methyl]-8-ethyl-2-(4-methylpiperazin-1-yl)pyrazolo[1,5-a][1,3,5]triazin-4-amine], the IC50 on CDK2/CycE was 5 µM; in assay [1], 0.000959 µM; at CDK9/CycT1, above 20 µM.

With `CC(C)c1cnn2c(NCc3nc4ccccc4[nH]3)nc(N3CCOCC3)nc12` [Example 1, N-[(1H-benzimidazol-2-yl)methyl]-2-(morpholin-4-yl)-8-(propan-2-yl)pyrazolo[1,5-a][1,3,5]triazin-4-amine], the IC50 is 5.27 µM on CDK2/CycE, 0.0166 µM in assay [1] and above 20 µM on CDK9/CycT1.

As to `Clc1ccc(-c2cnc(CNc3nc(N4CCOCC4)nc4c(Br)cnn34)[nH]2)cc1` [Example 72, 8-bromo-N-{[5-(4-chlorophenyl)-1H-imidazol-2-yl]methyl}-2-(morpholin-4-yl)pyrazolo[1,5-a][1,3,5]triazin-4-amine], the IC50 at CDK2/CycE was found to be 4.35 µM; in assay [1] it was 0.0386 µM; at CDK9/CycT1, 6.72 µM.

Turning to `COc1ccccc1-c1cnc(CNc2nc(N3CCOCC3)nc3c(Br)cnn23)[nH]1` [Example 87, 8-bromo-N-{[5-(2-methoxyphenyl)-1H-imidazol-2-yl]methyl}-2-(morpholin-4-yl)pyrazolo[1,5-a][1,3,5]triazin-4-amine], the values for the IC50 (at CDK2/CycE; in assay [1]; at CDK9/CycT1) were 2.55 µM, 0.0107 µM and 5.13 µM, respectively.

Take `COC1CCN(c2nc(NCc3nc4ccccc4[nH]3)n3ncc(Br)c3n2)CC1` [Example 62, N-[(1H-benzimidazol-2-yl)methyl]-8-bromo-2-(4-methoxypiperidin-1-yl)pyrazolo[1,5-a][1,3,5]triazin-4-amine]: the IC50 on CDK2/CycE was 6.45 µM; in assay [1], 0.0377 µM; on CDK9/CycT1, above 20 µM.

As for `Fc1ccc2[nH]c(CNc3nc(N4CCOCC4)nc4c(-c5cnn(C(F)F)c5)cnn34)nc2c1F` [Example 422, N-[(4,5-difluoro-1H-benzimidazol-2-yl)methyl]-8-[1-(difluoromethyl)-1H-pyrazol-4-yl]-2-(morpholin-4-yl)pyrazolo[1,5-a][1,3,5]triazin-4-amine], the IC50 on CDK2/CycE was above 20 µM; in assay [1], 0.00743 µM; at CDK9/CycT1, above 20 µM.

As for `C[C@@H]1CN(c2nc(NCc3nc4ccccc4[nH]3)n3ncc(Br)c3n2)C[C@H](C)O1` [Example 73, N-[(1H-benzimidazol-2-yl)methyl]-8-bromo-2-[(2R,6S)-2,6-dimethylmorpholin-4-yl]pyrazolo[1,5-a][1,3,5]triazin-4-amine], the IC50 on CDK2/CycE worked out at 6.09 µM; in assay [1] it was 0.0495 µM; on CDK9/CycT1, 9.38 µM.

Turning to `Cc1ccccc1-c1cnc(CNc2nc(N3CCOCC3)nc3c(Br)cnn23)[nH]1` [Example 85, 8-bromo-N-{[5-(2-methylphenyl)-1H-imidazol-2-yl]methyl}-2-(morpholin-4-yl)pyrazolo[1,5-a][1,3,5]triazin-4-amine], the IC50 at CDK2/CycE was 4.52 µM; in assay [1], 0.0183 µM; on CDK9/CycT1, above 10.8 µM.

Consider `COC(=O)C1CCN(c2nc(NCc3nc4ccccc4[nH]3)n3ncc(Br)c3n2)CC1` [Example 63, methyl 1-(4-{[(1H-benzimidazol-2-yl)methyl]amino}-8-bromopyrazolo[1,5-a][1,3,5]triazin-2-yl)piperidine-4-carboxylate], for which the IC50 was 6.49 µM on CDK2/CycE, 0.341 µM in assay [1] and above 20 µM on CDK9/CycT1.

On to `OC[C@H]1CCCCN1c1nc(NCc2nnc(-c3ccccc3)[nH]2)n2ncc(Br)c2n1` [Example 71, [(2R)-1-(8-bromo-4-{[(5-phenyl-4H-1,2,4-triazol-3-yl)methyl]amino}pyrazolo[1,5-a][1,3,5]triazin-2-yl)piperidin-2-yl]methanol], for which the IC50 on CDK2/CycE stood at 2.23 µM; in assay [1], 0.0211 µM; on CDK9/CycT1, 1.76 µM.

Consider `OCC1COCCN1c1nc(NCc2nc3ccccc3[nH]2)n2ncc(Br)c2n1` (stereo not drawn) [Example 67, (4-{4-[(1H-benzimidazol-2-ylmethyl)amino]-8-bromopyrazolo[1,5-a][1,3,5]triazin-2-yl}morpholin-3-yl)methanol], for which the IC50 on CDK2/CycE is 1.86 µM; in assay [1], 0.0248 µM; at CDK9/CycT1, above 19.4 µM.

On to `Fc1cccc(-c2cnn3c(NCc4nc5ccccc5[nH]4)nc(N4CCOCC4)nc23)c1` [Example 91, N-[(1H-benzimidazol-2-yl)methyl]-8-(3-fluorophenyl)-2-(morpholin-4-yl)pyrazolo[1,5-a][1,3,5]triazin-4-amine], for which the values for the IC50 (at CDK2/CycE; in assay [1]; on CDK9/CycT1) were above 20 µM, 0.0855 µM and above 20 µM, respectively.

As for `c1ccc2[nH]c(CNc3nc(N4CCOCC4)nc4c(C5CC5)cnn34)nc2c1` [Example 92, N-[(1H-benzimidazol-2-yl)methyl]-8-cyclopropyl-2-(morpholin-4-yl)pyrazolo[1,5-a][1,3,5]triazin-4-amine], the figures for the IC50 (on CDK2/CycE; in assay [1]; on CDK9/CycT1) were 15.6 µM, 0.0133 µM and above 20 µM, respectively.

`Fc1ccc(-c2cnc(CNc3nc(N4CCOCC4)nc4c(Br)cnn34)[nH]2)cc1` [Example 66, 8-bromo-N-{[5-(4-fluorophenyl)-1H-imidazol-2-yl]methyl}-2-(morpholin-4-yl)pyrazolo[1,5-a][1,3,5]triazin-4-amine]: the IC50 on CDK2/CycE stood at 2.3 µM; in assay [1], 0.624 µM; at CDK9/CycT1 it was 4.48 µM.

Take `Fc1ccccc1-c1cnc(CNc2nc(N3CCOCC3)nc3c(Br)cnn23)[nH]1` [Example 86, 8-bromo-N-{[5-(2-fluorophenyl)-1H-imidazol-2-yl]methyl}-2-(morpholin-4-yl)pyrazolo[1,5-a][1,3,5]triazin-4-amine]: the figures for the IC50 (at CDK2/CycE; in assay [1]; at CDK9/CycT1) were 1.95 µM, 0.0171 µM and 5.27 µM, respectively.

Regarding `Brc1cnn2c(NCc3ncc(-c4ccccn4)[nH]3)nc(N3CCOCC3)nc12` [Example 90, 8-bromo-2-(morpholin-4-yl)-N-{[5-(pyridin-2-yl)-1H-imidazol-2-yl]methyl}pyrazolo[1,5-a][1,3,5]triazin-4-amine], the IC50 at CDK2/CycE turned out to be 1.79 µM; in assay [1], 0.0137 µM; on CDK9/CycT1 it was 9.35 µM.

(Values after patent US20230117034A1, “PYRAZOLOTRIAZINES” (Bayer Aktiengesellschaft, priority 2019, published 2023).)
